The source of these data is ChEMBL document CHEMBL6074659, “Development of an Intravenously Stable Disulfide-Rich Peptide for the Treatment of Chemotherapy-Induced Neuropathic Pain” (J Med Chem, 2024).

The target of data set [1] is T1, Neuronal acetylcholine receptor; alpha9/alpha10 (Homo sapiens, UniProt Q9GZZ6+Q9UGM1). As to the kind of experiment: Antagonist activity at human alpha9alpha10 nAChR expressed in acetylcholine-induced Xenopus laevis oocytes assessed as inhibition of acetylcholine-induced current at -80 mV holding potential incubated for 5 mins by two electrode voltage-clamp assay. Format: cell-based, Oocyte. A general note: Two-electrode voltage clamp holds a large cell at a set potential and records current.
T1 sequence (Q9UGM1 whole entry): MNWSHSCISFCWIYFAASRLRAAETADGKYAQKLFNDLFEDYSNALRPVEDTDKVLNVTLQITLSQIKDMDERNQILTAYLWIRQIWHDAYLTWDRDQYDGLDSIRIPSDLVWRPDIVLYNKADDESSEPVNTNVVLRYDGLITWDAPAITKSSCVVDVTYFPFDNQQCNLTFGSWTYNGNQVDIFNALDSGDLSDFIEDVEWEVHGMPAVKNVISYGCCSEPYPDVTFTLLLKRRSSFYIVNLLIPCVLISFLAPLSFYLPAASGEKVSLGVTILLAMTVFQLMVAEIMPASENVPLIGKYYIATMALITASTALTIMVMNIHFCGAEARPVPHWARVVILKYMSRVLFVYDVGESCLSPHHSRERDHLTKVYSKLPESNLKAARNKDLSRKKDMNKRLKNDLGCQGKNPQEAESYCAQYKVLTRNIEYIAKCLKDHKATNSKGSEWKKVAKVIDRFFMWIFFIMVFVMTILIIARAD
T1 sequence (Q9GZZ6 whole entry): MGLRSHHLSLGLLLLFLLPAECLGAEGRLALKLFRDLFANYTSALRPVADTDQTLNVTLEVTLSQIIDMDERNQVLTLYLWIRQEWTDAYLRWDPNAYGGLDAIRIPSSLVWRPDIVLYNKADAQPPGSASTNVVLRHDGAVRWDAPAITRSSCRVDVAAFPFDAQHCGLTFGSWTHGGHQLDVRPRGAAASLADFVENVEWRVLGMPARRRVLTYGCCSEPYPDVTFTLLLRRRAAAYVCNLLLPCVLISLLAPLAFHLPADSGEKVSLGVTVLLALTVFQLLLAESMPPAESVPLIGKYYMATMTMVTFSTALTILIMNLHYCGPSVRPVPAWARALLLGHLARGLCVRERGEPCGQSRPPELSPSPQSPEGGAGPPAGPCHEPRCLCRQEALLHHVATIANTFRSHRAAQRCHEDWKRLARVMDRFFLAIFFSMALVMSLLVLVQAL

Data set [2] addresses T2, Neuronal acetylcholine receptor; alpha4/beta4 (Homo sapiens) (UniProt P30926+P43681). The data set is described as follows: Inhibition of human alpha4beta4 nAChR assessed as reduction in acetylcholine-induced current at 10 to 100 nM incubated for 5 mins by two electrode voltage-clamp assay relative to control. Conditions: dose 10-100 nM. Type of data set: protein-complex assay.

Data set [3] has as its system Rattus norvegicus. As to the kind of experiment: Analgesic activity in Oxaliplatin-induced cold allodynia SPF male Sprague-Dawley rat assessed as increase in latency at 500 microg/kg, iv measured at 72 hrs by cold plate test. Type of data set: functional, organism-based. Conditions: dose 500.0 µg/kg.
Data set [4] relates to Rattus norvegicus. As to the kind of experiment: Analgesic activity in Oxaliplatin-induced cold allodynia SPF male Sprague-Dawley rat assessed as reduction in pain-relieving effect by measuring acetone response score at 50 microg/kg, iv measured at 48 hrs. Type of data set: functional, organism-based. The settings on record: dose 50.0 µg/kg.
The target of data set [5] is Neuronal acetylcholine receptor; alpha3/beta2 (Homo sapiens, UniProt P17787+P32297). As to the kind of experiment: Inhibition of human alpha3beta2 nAChR assessed as reduction in acetylcholine-induced current incubated for 5 mins by two electrode voltage-clamp assay. Type of data set: protein-complex assay.
Chain of Neuronal acetylcholine receptor; alpha3/beta2 (P17787 whole entry): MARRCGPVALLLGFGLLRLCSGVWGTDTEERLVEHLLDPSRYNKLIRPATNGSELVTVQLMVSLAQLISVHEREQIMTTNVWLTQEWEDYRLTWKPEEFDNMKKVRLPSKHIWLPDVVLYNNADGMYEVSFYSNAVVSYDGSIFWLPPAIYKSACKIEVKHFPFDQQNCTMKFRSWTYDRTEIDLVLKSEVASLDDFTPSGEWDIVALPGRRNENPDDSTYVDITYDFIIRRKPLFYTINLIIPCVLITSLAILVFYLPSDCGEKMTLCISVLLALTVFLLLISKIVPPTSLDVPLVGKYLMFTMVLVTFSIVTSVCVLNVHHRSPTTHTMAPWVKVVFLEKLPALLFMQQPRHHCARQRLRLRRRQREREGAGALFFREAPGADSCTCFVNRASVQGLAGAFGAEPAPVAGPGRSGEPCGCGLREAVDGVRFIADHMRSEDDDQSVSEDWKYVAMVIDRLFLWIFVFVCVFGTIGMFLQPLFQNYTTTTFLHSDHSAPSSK
Chain of Neuronal acetylcholine receptor; alpha3/beta2 (P32297 whole entry): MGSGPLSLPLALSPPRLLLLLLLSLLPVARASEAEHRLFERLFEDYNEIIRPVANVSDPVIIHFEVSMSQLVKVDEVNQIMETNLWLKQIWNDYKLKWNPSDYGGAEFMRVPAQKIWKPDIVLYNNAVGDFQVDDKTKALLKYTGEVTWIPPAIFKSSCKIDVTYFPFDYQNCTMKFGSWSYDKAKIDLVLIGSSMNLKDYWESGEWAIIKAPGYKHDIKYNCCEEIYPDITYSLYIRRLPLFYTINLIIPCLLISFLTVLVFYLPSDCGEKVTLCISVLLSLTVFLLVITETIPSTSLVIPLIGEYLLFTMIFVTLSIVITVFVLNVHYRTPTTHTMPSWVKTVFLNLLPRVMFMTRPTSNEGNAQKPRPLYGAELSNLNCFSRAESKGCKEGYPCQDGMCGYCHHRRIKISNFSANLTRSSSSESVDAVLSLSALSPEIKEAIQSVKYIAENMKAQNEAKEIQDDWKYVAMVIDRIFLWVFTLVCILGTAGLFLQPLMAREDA
Data set [6] can be described thus: Stability in human serum assessed as parent compound remaining incubated at 48 hrs by RP-HPLC analysis. Type of data set: ADME, cell-free. The settings on record: read-out: Stability.
Data set [7] concerns the target T1, Neuronal acetylcholine receptor; alpha9/alpha10. The data set is described as follows: Inhibition of human alpha9alpha10 nAChR assessed as reduction in acetylcholine-induced current incubated for 5 mins by two electrode voltage-clamp assay. Format: protein-complex assay.
Data set [8] in a line: Stability in human serum assessed as parent compound remaining incubated at 24 hrs by RP-HPLC analysis. Conditions: human serum, read-out: Stability. Format: ADME, cell-free.
Data set [9] deals with Rattus norvegicus. As to the kind of experiment: Analgesic activity in Oxaliplatin-induced cold allodynia iv dosed SPF male Sprague-Dawley rat assessed as reduction in pain-relieving effect measured at 72 hrs. Type of data set: functional, organism-based. Conditions: dose 500.0 µg/kg.
Data set [10] deals with Neuronal acetylcholine receptor; alpha3/beta4 (Homo sapiens) (UniProt P30926+P32297). As to the kind of experiment: Inhibition of human alpha3beta4 nAChR assessed as reduction in acetylcholine-induced current at 10 to 100 nM incubated for 5 mins by two electrode voltage-clamp assay relative to control. Format: protein-complex assay. The settings on record: dose 10-100 nM.

The species entered for data set [11] is Homo sapiens. As to the kind of experiment: Inhibition of human alpha1beta1epsilondelta nAChR assessed as reduction in acetylcholine-induced current at 10 to 100 nM incubated for 5 mins by two electrode voltage-clamp assay relative to control. Conditions: dose 10-100 nM.
For data set [12], the system named is Rattus norvegicus. As to the kind of experiment: Analgesic activity in Oxaliplatin-induced cold allodynia SPF male Sprague-Dawley rat assessed as increase in latency at 200 microg/kg, iv measured at 72 hrs by cold plate test. Format: functional, organism-based. The settings on record: dose 200.0 µg/kg.
In data set [13] the target is T2, Neuronal acetylcholine receptor; alpha4/beta4 (Homo sapiens). The data set is described as follows: Inhibition of human alpha4beta4 nAChR assessed as reduction in acetylcholine-induced current at 100 nM incubated for 5 mins by two electrode voltage-clamp assay relative to control. Type of data set: protein-complex assay.
Data set [14] has as its system Rattus norvegicus. As to the kind of experiment: Analgesic activity in Oxaliplatin-induced cold allodynia SPF male Sprague-Dawley rat assessed as latency time at 500 microg/kg, iv measured at 48 hrs by cold plate test. Type of data set: functional. The settings on record: dose 500 µg/kg.
A short description of data set [15]: Stability in human serum assessed as half life incubated upto 192 hrs by RP-HPLC analysis. Format: ADME, cell-free.
In data set [16] the target is Neuronal acetylcholine receptor subunit alpha-7 (Homo sapiens, UniProt P36544). As to the kind of experiment: Inhibition of human alpha7 nAChR assessed as reduction in acetylcholine-induced current incubated for 5 mins by two electrode voltage-clamp assay.
Chain of Neuronal acetylcholine receptor subunit alpha-7 (P36544 whole entry): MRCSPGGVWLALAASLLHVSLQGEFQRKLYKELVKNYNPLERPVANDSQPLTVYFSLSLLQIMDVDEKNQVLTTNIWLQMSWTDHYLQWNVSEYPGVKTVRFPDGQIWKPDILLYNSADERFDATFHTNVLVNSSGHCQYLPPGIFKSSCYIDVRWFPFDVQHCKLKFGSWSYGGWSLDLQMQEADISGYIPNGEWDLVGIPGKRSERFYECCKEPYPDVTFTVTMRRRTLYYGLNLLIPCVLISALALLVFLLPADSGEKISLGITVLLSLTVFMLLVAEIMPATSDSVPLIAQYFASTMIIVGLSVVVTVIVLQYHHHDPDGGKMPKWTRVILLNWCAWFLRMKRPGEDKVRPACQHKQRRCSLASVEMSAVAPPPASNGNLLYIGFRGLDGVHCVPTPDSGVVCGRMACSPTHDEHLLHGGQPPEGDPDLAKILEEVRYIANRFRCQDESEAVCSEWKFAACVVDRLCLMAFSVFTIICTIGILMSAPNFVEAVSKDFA
The subject of data set [17] is Rattus norvegicus. The data set is described as follows: Analgesic activity in Oxaliplatin-induced cold allodynia SPF male Sprague-Dawley rat assessed as reduction in pain-relieving effect at 500 microg/kg, iv measured at 24 to 48 hrs. Type of data set: functional, organism-based. Conditions: dose 500.0 µg/kg, time 24-48 hrs.
For data set [18], the target named is T2, Neuronal acetylcholine receptor; alpha4/beta4 (Homo sapiens). As to the kind of experiment: Inhibition of human alpha4beta4 nAChR assessed as reduction in acetylcholine-induced current at 10 nM incubated for 5 mins by two electrode voltage-clamp assay. Format: protein-complex assay.
Data set [19] concerns Rattus norvegicus. The data set is described as follows: Analgesic activity in Oxaliplatin-induced cold allodynia SPF male Sprague-Dawley rat assessed as reduction in pain-relieving effect by measuring acetone response score at 200 microg/kg, iv measured at 48 hrs. The settings on record: dose 200.0 µg/kg. Format: functional, organism-based.
The species named for data set [20] is Homo sapiens. As to the kind of experiment: Inhibition of human alpha1beta1deltagamma nAChR assessed as reduction in acetylcholine-induced current at 10 to 100 nM incubated for 5 mins by two electrode voltage-clamp assay relative to control. Conditions: dose 10-100 nM.

Active and inactive are the calls of the source. The rule behind the calls is not given here. Residues, ends and D or L forms follow the SMILES beside them. Some results are limits rather than exact numbers.

Usually IC50 stands for the concentration needed to halve the response being measured. As usually defined, the inhibition is the share of the control response that was lost under treatment. As usually defined, the half-life is how long it takes for the measured level to halve. As for `CC[C@H](C)[C@@H]1NC(=O)[C@H](CC(=O)O)NC(=O)[C@@H]2CCCN2C(=O)[C@H](CC(N)=O)NC(=O)[C@H](CC(N)=O)NC(=O)[C@H](C(C)C)NC(=O)[C@H](CO)NC(=O)[C@@H]2CSSC[C@H](NC(=O)CN)C(=O)N[C@@H](CSSC(C)(C)[C@@H](C(N)=O)NC1=O)C(=O)N[C@@H](CN)C(=O)N[C@@H](Cc1cnc[nH]1)C(=O)N1CCC[C@H]1C(=O)N[C@@H](C)C(=O)N2` (HELM PEPTIDE1{G.C.C.[NC[C@H](N[*:1])C(=O)[*:2]].H.P.A.C.S.V.N.N.P.D.I.[Pen].[am]}$PEPTIDE1,PEPTIDE1,2:R3-8:R3|PEPTIDE1,PEPTIDE1,3:R3-16:R3$$$V2.0), the IC50 in data set [1] stood at 4 nM; in data set [5], 21.8 nM; in [7] it was 4.1 nM; in [16], 133 nM. Also, the inhibition in data set [2] was less than 1%; in [10], less than 1%; in the data set listed under Homo sapiens [11], less than 1%; in data set [13], 20%; in the data set filed under Homo sapiens [20], less than 1%. Moreover, the outcome with Rattus norvegicus [3], in the data set on Rattus norvegicus [12], in the data set on Rattus norvegicus [17] and in the data set on Rattus norvegicus [19] was Active. Also, in the data set on Rattus norvegicus [4], the result was inactive. Also, the remaining at 48 h in data set [6] came out at 85%. Also, the remaining at 24 h in data set [8] came to 90%. The Activity result with Rattus norvegicus [9] was “Dose-dependent-effect”. In the data set on Rattus norvegicus [14], the Time worked out at 140 s. Also, in data set [15], the half-life was 142 h. The inhibition entry in data set [18] was “inactive”.
